One test concerns the target T1, 15-PGDH in A549 cells (Homo sapiens, UniProt P15428).
T1 construct: endogenous in cells; host or cells: A549
T1 sequence (P15428 1-266): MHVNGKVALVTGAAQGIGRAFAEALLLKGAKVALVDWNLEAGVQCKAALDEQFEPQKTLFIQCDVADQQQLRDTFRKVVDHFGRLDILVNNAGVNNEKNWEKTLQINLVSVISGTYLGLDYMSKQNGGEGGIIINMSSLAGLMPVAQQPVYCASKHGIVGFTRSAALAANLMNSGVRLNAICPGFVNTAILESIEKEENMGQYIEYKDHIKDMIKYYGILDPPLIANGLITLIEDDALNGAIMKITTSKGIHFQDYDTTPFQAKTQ
The test can be described thus: A549 cellular 15-PGDH assay (PGE2 accumulation, HTRF). The test is classed as cell-based. Particulars: interleukin-stimulated, inhibitor 24 hrs, PGE2 by competitive HTRF, read-out: A549 Cell Assay IC50. Put shortly:
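IL-13-stimulated A549 lung carcinoma cells released PGE2, which was measured in supernatants by competitive HTRF with a Eu-cryptate anti-PGE2 antibody and labelled PGE2. Signal falls as PGE2 rises. IC50 values were derived from the binding data.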
(Time-resolved FRET reads energy transfer from a long-lived donor to a nearby acceptor.)

Test [1] deals with T2, human recombinant 15-PGDH (Homo sapiens, UniProt P15428).
T2 sequence (P15428 1-266): T1 sequence (P15428 1-266)
The experiment in a line: Recombinant 15-PGDH enzymatic inhibition assay (PGDH-Lumi, NADH signal). Particulars: recombinant 15-PGDH; 15 min pre-incubation, 60 min reaction with PGE2 and NAD+, NADH signal. The test is classed as biochemical. In a few lines: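 Recombinant 15-PGDH pre-incubated 15 min at room temperature with compound (22 concentrations, 2-fold dilutions) in 50 mM Tris pH 7.5, 0.01% Tween-20, […].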

Structures are written as SMILES.

This note sets out measurements from US20240409557A1, “5,6-FUSED AND 6,6-FUSED BICYCLIC ALCOHOLS AND ETHERS AND COMPOSITIONS FOR USE AS 15-PROSTAGLANDIN DEHYDROGENASE MODULATORS” (AMGEN INC., priority 2023, published 2024).

As to `Cn1cc2cc(-c3ccc4cc(C5(O)CC6(CCCCC6)C5)sc4n3)cnc2n1` [Compound C52, 2-(6-(2-methyl-2H-pyrazolo[3,4-b]pyridin-5-yl)thieno[2,3-b]pyridin-2-yl)spiro[3.5]nonan-2-ol], the IC50 at 15-PGDH in A549 cells turned out to be 0.0938 nM; in test [1], 0.361 nM.

Consider `Cn1cc2cc(-c3cc(C4CC4)c4cc(C(O)C5CCC5)sc4n3)cnc2n1` (single isomer, unassigned) [Compound B8, cyclobutyl(4-cyclopropyl-6-(2-methyl-2H-pyrazolo[3,4-b]pyridin-5-yl)thieno[2,3-b]pyridin-2-yl)methanol], for which the results for the IC50 (on 15-PGDH in A549 cells; in test [1]) were 0.919 nM and 0.393 nM, respectively.

For `Cn1cc2cc(-c3ccc4cc(C5(O)CC5)sc4n3)cnc2n1` [Compound C60, 1-(6-(2-methyl-2H-pyrazolo[3,4-b]pyridin-5-yl)thieno[2,3-b]pyridin-2-yl)cyclopropanol], the IC50 was determined as 26.7 nM on 15-PGDH in A549 cells and 52.1 nM in test [1].

Take `Cn1cc2cc(-c3ccc4cc(C(O)[C@H]5CCOC5)sc4n3)cnc2n1` (single isomer, unassigned) [B19(RS)S]: the IC50 worked out at 1.03 nM on 15-PGDH in A549 cells and 0.637 nM in test [1].

`Cn1cnc2cc(-c3ccc4cc(C5(O)CC(F)(F)C5)sc4n3)cnc21` [Compound C33, 3,3-difluoro-1-(6-(3-methyl-3H-imidazo[4,5-b]pyridin-6-yl)thieno[2,3-b]pyridin-2-yl)cyclobutanol]: the IC50 came out at 1.08 nM on 15-PGDH in A549 cells and 2.55 nM in test [1].

As to `CO[C@H]1C[C@](O)(c2cc3ccc(-c4cnc5nn(C)cc5c4)nc3s2)C1` [Compound C31C, cis-3-methoxy-1-(6-(2-methyl-2H-pyrazolo[3,4-b]pyridin-5-yl)thieno[2,3-b]pyridin-2-yl)cyclobutanol], the IC50 at 15-PGDH in A549 cells came out at 0.157 nM; in test [1] it was 0.356 nM.

On to `O[C@H](c1cc2ccc(-c3ccc4nccnc4c3)nc2s1)C1CC(F)(F)C1` (single isomer, unassigned) [Compound B52S], for which the figures for the IC50 (on 15-PGDH in A549 cells; in test [1]) were 11.7 nM and 1.6 nM, respectively.

With `OC1(c2cc3ccc(-c4cnc5[nH]ncc5c4)nc3s2)CC(F)(F)C1` [Compound C36, 3,3-difluoro-1-(6-(1H-pyrazolo[3,4-b]pyridin-5-yl)thieno[2,3-b]pyridin-2-yl)cyclobutanol], the IC50 on 15-PGDH in A549 cells was 0.348 nM; in test [1], 0.756 nM.

For `OC1(c2cc3ccc(-c4cnc5nccnc5c4)nc3s2)CC(F)(F)C1` [Compound C47, 3,3-difluoro-1-(6-(pyrido[2,3-b]pyrazin-7-yl)thieno[2,3-b]pyridin-2-yl)cyclobutanol], the IC50 at 15-PGDH in A549 cells is 0.373 nM; in test [1], 0.996 nM.

In the case of `CC(O)c1cc2c(-c3ccnn3C)cc(-c3cnc4nn(C)cc4c3)nc2s1` (centres unmarked) [Compound B6, 1-(4-(1-methyl-1H-pyrazol-5-yl)-6-(2-methyl-2H-pyrazolo[3,4-b]pyridin-5-yl)thieno[2,3-b]pyridin-2-yl)ethan-1-ol], the results for the IC50 (on 15-PGDH in A549 cells; in test [1]) were 39.4 nM and 2.93 nM, respectively.

Take `CO[C@]1(C)C[C@@](O)(c2cc3cnc(-c4cnc5c(c4)nnn5C)nc3s2)C1` (single isomer, unassigned) [Compound C121C]: the IC50 came to 23.8 nM at 15-PGDH in A549 cells and 10.4 nM in test [1].

For the molecule `Cn1cc2cc(-c3ccc4cc([C@]5(O)C[C@@]6(CCO6)C5)sc4n3)cnc2n1` (single isomer, unassigned) [Compound C56T, trans-6-(6-(2-methyl-2H-pyrazolo[3,4-b]pyridin-5-yl)thieno[2,3-b]pyridin-2-yl)-1-oxaspiro[3.3]heptan-6-ol], the concentration for half-maximal inhibition (IC50) at 15-PGDH in A549 cells was 0.997 nM; in test [1], 1.18 nM.

On to `Cn1cc2cc(-c3ccc4cc(C5(O)CCC(F)(F)CC5)sc4n3)cnc2n1` [Compound C15, 4,4-difluoro-1-(6-(2-methyl-2H-pyrazolo[3,4-b]pyridin-5-yl)thieno[2,3-b]pyridin-2-yl)cyclohexanol], for which the IC50 on 15-PGDH in A549 cells was determined as 12.8 nM; in test [1] it was 2.85 nM.

As for `Cn1nnc2cc(-c3ncc4cc([C@]5(O)C[C@](C)(C#N)C5)sc4n3)cnc21` (single isomer, unassigned) [Compound C98T, trans-3-hydroxy-1-methyl-3-(2-(3-methyl-3H-[1,2,3]triazolo[4,5-b]pyridin-6-yl)thieno[2,3-d]pyrimidin-6-yl)cyclobutanecarbonitrile], the IC50 at 15-PGDH in A549 cells turned out to be 2.66 nM; in test [1], 1.73 nM.

In the case of `Cn1cc2cc(-c3ccc4cc(C(O)C5COC5)sc4n3)cnc2n1` (centres unmarked) [Compound B28, (6-(2-methyl-2H-pyrazolo[3,4-b]pyridin-5-yl)thieno[2,3-b]pyridin-2-yl)(oxetan-3-yl)methanol], the IC50 at 15-PGDH in A549 cells came to 1.07 nM; in test [1], 0.463 nM.

`CO[C@H]1C[C@](O)(c2cc3cnc(-c4cnc5nn(C)cc5c4)nc3s2)C1` [Compound C94C, cis-3-methoxy-1-(2-(2-methyl-2H-pyrazolo[3,4-b]pyridin-5-yl)thieno[2,3-d]pyrimidin-6-yl)cyclobutanol]: the figures for the IC50 (on 15-PGDH in A549 cells; in test [1]) were 1.45 nM and 2 nM, respectively.

For `Cn1cc2cc(-c3ncc4cc(C5(O)CC6(CC(F)(F)C6)C5)sc4n3)cnc2n1` [Compound C116, 6,6-difluoro-2-(2-(2-methyl-2H-pyrazolo[3,4-b]pyridin-5-yl)thieno[2,3-d]pyrimidin-6-yl)spiro[3.3]heptan-2-ol], the concentration for half-maximal inhibition (IC50) on 15-PGDH in A549 cells turned out to be 1.95 nM; in test [1], 0.43 nM.

As to `Cn1cc2cc(-c3ccc4cc(C5(O)CC(F)(F)C5)sc4n3)ccc2n1` [Compound C49, 3,3-difluoro-1-(6-(2-methyl-2H-indazol-5-yl)thieno[2,3-b]pyridin-2-yl)cyclobutanol], the half-inhibitory concentration (IC50) on 15-PGDH in A549 cells was 1.82 nM; in test [1], 13.2 nM.

As for `Cn1cc2cc(-c3ccc4c(Cl)c([C@]5(O)C[C@@H](C(F)(F)F)C5)sc4n3)cnc2n1` [Compound C75C, cis-1-(3-chloro-6-(2-methyl-2H-pyrazolo[3,4-b]pyridin-5-yl)thieno[2,3-b]pyridin-2-yl)-3-(trifluoromethyl)cyclobutanol], the IC50 at 15-PGDH in A549 cells was determined as 1.07 nM; in test [1], 0.707 nM.

Regarding `Cn1cc2cc(-c3ccc4cc([C@@H](O)C56CC(C5)C6)sc4n3)cnc2n1` (single isomer, unassigned) [Compound B87S], the half-maximal inhibitory concentration (IC50) on 15-PGDH in A549 cells was 0.572 nM; in test [1], 28.8 nM.

`Cn1cc2cc(-c3ccc4cc(C(O)C5CCC5)sc4n3)cnc2n1` (centres unmarked) [Compound B18, cyclobutyl(6-(2-methyl-2H-pyrazolo[3,4-b]pyridin-5-yl)thieno[2,3-b]pyridin-2-yl)methanol]: the figures for the IC50 (on 15-PGDH in A549 cells; in test [1]) were 0.0918 nM and 0.382 nM, respectively.

As to `CCC[C@@H](O)c1cc2ccc(-c3cnc4nn(C)cc4c3)nc2s1` (single isomer, unassigned) [Compound B27R], the IC50 is 0.728 nM at 15-PGDH in A549 cells and 0.255 nM in test [1].

For the molecule `Cn1cc2cc(-c3ccc4cc(C5(O)CC6(COC6)C5)sc4n3)cnc2n1` [Compound C28], the values for the IC50 (on 15-PGDH in A549 cells; in test [1]) were 0.452 nM and 0.472 nM, respectively.

In the case of `OC1(c2cc3ccc(-c4ccc5[nH]ncc5c4)nc3s2)CC(F)(F)C1` [Compound C42, 3,3-difluoro-1-(6-(1H-indazol-5-yl)thieno[2,3-b]pyridin-2-yl)cyclobutanol], the results for the IC50 (at 15-PGDH in A549 cells; in test [1]) were 6.81 nM and 23.8 nM, respectively.

Take `COCC[C@@H](O)c1cc2ccc(-c3cnc4nn(C)cc4c3)nc2s1` (single isomer, unassigned) [Compound B29R]: the IC50 on 15-PGDH in A549 cells came to 0.745 nM; in test [1] it was 0.209 nM.

Broadly, the IC50 is the concentration that gives 50% inhibition.
